The source of these data is ChEMBL document CHEMBL4715783, “Insights into tyrosinase inhibition by compounds isolated from Greyia radlkoferi Szyszyl using biological activity, molecular docking and gene expression analysis” (Bioorg Med Chem, 2016).

Values after ≈ are worked out from the molar mass of the structure shown. Active and inactive are the calls of the source. The calls are words filed in the database; no cut-off is given here.

The target of data set [1] is T1, Mushroom tyrosinase (Agaricus bisporus, UniProt O42713+Q00024+C7FF04+C7FF05). Briefly: Inhibition of monophenolase activity of mushroom tyrosinase using L-Tyrosine substrate incubated for 10 mins followed by substrate addition and measured for 15 mins.
The target of data set [2] is T1, Mushroom tyrosinase. Briefly: Inhibition of monophenolase activity of mushroom tyrosinase using L-Tyrosine substrate incubated for 5 mins followed by substrate addition and measured for 30 mins by colorimetry.
Data set [3] concerns B16-F10. The experiment in a line: Inhibition of melanin production in mouse B16-F10 cells at 6.25 ug/ml relative to control. The data set is classed as functional.
Data set [4] concerns B16-F10. The experiment in a line: Cytotoxicity against mouse B16-F10 cells assessed as reduction in cell viability incubated for 72 hrs by XTT assay. The class given is cell-based. To be noted: B16-F10, 72 h.
Data set [5] concerns B16-F10. Briefly: Inhibition of melanin production in mouse B16-F10 cells at 12.5 to 25 ug/ml relative to control. The conditions noted are these: dose 12.5-25 µg/ml. The data set is classed as functional.
Data set [6] has as its target T2, Mushroom tyrosinase (Agaricus bisporus) (UniProt O42713+Q00024+C7FF04+C7FF05). The experiment in a line: Inhibition of monophenolase activity of mushroom tyrosinase at 100 uM relative to control.
The test system of another data set is B16-F1. Briefly: Inhibition of melanin production in C57BL/6J mouse B16-F1 cells incubated for 5 days. The class given is functional, cell-based. The conditions noted are these: B16-F1, 120 h.
The test system of data set [7] is B16-F10. The experiment in a line: Inhibition of melanin production in mouse B16-F10 cells at 100 ug/ml relative to control. The class given is functional.
The target of data set [8] is T1, Mushroom tyrosinase. The experiment in a line: Inhibition of monophenolase activity of mushroom tyrosinase using L-Tyrosine substrate incubated for 10 mins followed by substrate addition and measured for 20 mins.
Data set [9] deals with B16-F10. The experiment in a line: Inhibition of melanin production in mouse B16-F10 cells at 12.5 ug/ml relative to control. The data set is classed as functional.
Data set [10] is described as follows: Solubility of compound in water at >[…] uM. The class given is physicochemical. The conditions noted are these: buffer; dose >50 µM.
In data set [11] the test system is B16-F10. Briefly: Inhibition of melanin production in mouse B16-F10 cells at 25 ug/ml relative to control. The data set is classed as functional.
The target of data set [12] is T2, Mushroom tyrosinase (Agaricus bisporus). The experiment in a line: Inhibition of monophenolase activity of mushroom tyrosinase assessed as reduction in dopachrome formation using L-Tyrosine substrate incubated for 30 mins by spectrophotometry relative to control.
Data set [13] concerns the target T1, Mushroom tyrosinase. Briefly: Inhibition of diphenolase activity of mushroom tyrosinase assessed as reduction in dopachrome formation using L-DOPA substrate incubated for 30 mins.
Another data set in a line: cells. The conditions noted are these: Mus musculus, B16-BL6, 120 h.
Data set [14] has as its target T1, Mushroom tyrosinase. Briefly: Inhibition of monophenolase activity of mushroom tyrosinase using L-Tyrosine substrate incubated for 30 mins by spectrophotometry.
For data set [15], the system named is B16-F10. The experiment in a line: Inhibition of melanin production in mouse B16-F10 cells at 21.42 ug/ml relative to control. The class given is functional, cell-based. The conditions noted are these: dose 21.42 µg/ml.
For data set [16], the target named is T1, Mushroom tyrosinase. The experiment in a line: Inhibition of monophenolase activity of mushroom tyrosinase.
Data set [17] is described as follows: Inhibition of monophenolase activity of tyrosinase in C57BL/6 mouse melan-a cells incubated for 72 hrs by bradford method.

Description for cells: Cytotoxicity against mouse B16-BL6 cells assessed as reduction in cell viability incubated for 5 days by MTT assay

Usually IC50 stands for the concentration that inhibits the measured activity by half. For the molecule `O=C(/C=C/c1ccc(O)cc1O)c1ccc(O)cc1O`, the IC50 at Mushroom tyrosinase [1] worked out at 0.06 µM.

As usually defined, the inhibition is the relative decrease from the control value, in per cent. Consider `COc1cc(O)c(C(=O)CCc2ccccc2)c(O)c1`, for which the figures for the IC50 on Mushroom tyrosinase [2] and in the data set on B16-F10 [4] were more than 200 µM and 373 µM, respectively. Besides, at 6.25 µg/mL the inhibition with B16-F10 [3] was 10%.

On to `O=C(CCc1ccccc1)c1c(O)cc(O)cc1O`, for which the IC50 at Mushroom tyrosinase [2] was 68.48 µM; in the data set on B16-F10 [4] it was 219 µM. Also, the “inhibition (INH)” value with B16-F10 [5] is 25%.

Take `O=C1C[C@@H](c2ccc(O)cc2)Oc2cc(O)cc(O)c21`: the inhibition in data set [6] amounted to 2.8%.

As for `OC[C@H]1O[C@@H](Oc2ccc(O)cc2)[C@H](O)[C@@H](O)[C@@H]1O` [ARBUTIN], the IC50 was 122 µM with B16-F1 and 391 µM in the data set with B16-F10 [4]. This molecule came in with an inhibition at 100 µg/mL with B16-F10 [7] of 78%.

With `Cc1c(O)c(C)c2c(c1O)C(=O)C[C@@H](c1ccccc1)O2` [DEMETHOXYMATTEUCINOL], the IC50 at Mushroom tyrosinase [8] turned out to be 97.6 µM.

As to `O=c1c(O)c(-c2ccccc2)oc2cc(O)cc(O)c12` [GALANGIN], the values for the IC50 at Mushroom tyrosinase [2], in the data set on B16-F10 [4] and on Mushroom tyrosinase [13] were 420.37 µM, more than 200 µM and 101 µM, respectively. The molecule further displayed an inhibition at 12.5 µg/mL in the data set on B16-F10 [9] of 30%. Also, the solubility entry in data set [10] is reported as “Insoluble”. This molecule also showed an inhibition at 25 µg/mL in the data set on B16-F10 [11] of 40%. Further, the inhibition in [12] stood at 20%.

`O=c1c(-c2ccc(O)cc2)coc2cc(O)cc(O)c12` [GENISTEIN]: the half-maximal inhibitory concentration (IC50) at Mushroom tyrosinase [2] is more than 200 µM; in “cells”, 4.18 µg/mL (≈ 15.5 µM); on Mushroom tyrosinase [14] it was 822 µM; in the data set on B16-F10 [4] it was 79.2 µM. Also, the inhibition result in the data set on B16-F10 [15] was “inactive”.

Regarding `CC(C)=CCc1c(O)cc(O)c2c1O[C@H](c1ccccc1)CC2=O` [GLABRANIN], the 50% inhibitory concentration (IC50) on Mushroom tyrosinase [8] came to 80.6 µM.

`CC(C)=CCc1c(O)ccc(C(=O)/C=C/c2ccc(O)cc2O)c1O` [MORACHALCONE A] gave an IC50 on Mushroom tyrosinase [16] of 0.14 µM.

For `COc1cc(O)c(C(=O)[C@@H]2[C@H](CC=C(C)C)C(C)=CC[C@H]2c2ccccc2)c(O)c1` [PANDURATIN A], in data set [17], the concentration for half-maximal inhibition (IC50) was 8.2 µM.

Take `O=C1C[C@@H](c2ccccc2)Oc2cc(O)cc(O)c21` [PINOCEMBRIN]: the IC50 against Mushroom tyrosinase [2] is more than 200 µM; in the data set with B16-F10 [4], 30.1 µM. In the data set with B16-F10 [9], this molecule gave an inhibition at 12.5 µg/mL of 8%.
